Source: article PMC6785188 (ACS chemical neuroscience, 2019)

How the values were obtained:
[1] = biological target: T1, D4 (Homo sapiens, UniProt P21917); experiment: Radioligand binding affinity assay, D4
T1 sequence (P21917 1-419): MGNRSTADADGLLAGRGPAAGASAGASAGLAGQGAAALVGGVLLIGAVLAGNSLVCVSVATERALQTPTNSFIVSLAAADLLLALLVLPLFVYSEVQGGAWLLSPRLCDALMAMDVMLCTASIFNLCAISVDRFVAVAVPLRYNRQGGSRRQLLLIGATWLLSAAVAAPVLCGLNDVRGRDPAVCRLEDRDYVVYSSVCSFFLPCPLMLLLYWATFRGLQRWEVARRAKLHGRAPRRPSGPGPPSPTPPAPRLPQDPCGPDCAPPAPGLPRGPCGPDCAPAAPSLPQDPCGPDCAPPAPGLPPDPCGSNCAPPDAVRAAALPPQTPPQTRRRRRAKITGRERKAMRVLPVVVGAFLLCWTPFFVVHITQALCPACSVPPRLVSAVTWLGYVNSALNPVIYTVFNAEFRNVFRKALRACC

[2] = biological target: 5-HT1B (Homo sapiens, UniProt P28222); experiment: Radioligand binding affinity assay, 5-HT1B
[3] = biological target: 5-HT1D (Homo sapiens, UniProt P28221); experiment: Radioligand binding affinity assay, 5-HT1D
[4] = biological target: 5-HT1E (Homo sapiens, UniProt P28566); experiment: Radioligand binding affinity assay, 5-HT1E
[5] = biological target: 5-HT2B (Homo sapiens, UniProt P41595); experiment: Radioligand binding affinity assay, 5-HT2B
[6] = biological target: T2, 5-HT3 (Homo sapiens, UniProt P46098); experiment: Radioligand binding affinity assay, 5-HT3
T2 sequence (P46098 24-478): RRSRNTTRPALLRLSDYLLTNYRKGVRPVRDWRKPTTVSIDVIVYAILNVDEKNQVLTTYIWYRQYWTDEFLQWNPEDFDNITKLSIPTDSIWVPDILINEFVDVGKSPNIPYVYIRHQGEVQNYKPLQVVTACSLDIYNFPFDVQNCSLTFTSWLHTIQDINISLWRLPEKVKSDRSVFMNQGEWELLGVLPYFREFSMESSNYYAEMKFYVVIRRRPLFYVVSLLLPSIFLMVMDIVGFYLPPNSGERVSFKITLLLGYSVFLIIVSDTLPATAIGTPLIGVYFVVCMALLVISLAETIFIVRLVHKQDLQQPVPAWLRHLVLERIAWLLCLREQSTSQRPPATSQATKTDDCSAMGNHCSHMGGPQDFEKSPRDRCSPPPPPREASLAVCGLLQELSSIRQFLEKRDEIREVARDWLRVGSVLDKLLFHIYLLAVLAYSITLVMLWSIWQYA

[7] = biological target: T3, Alpha2A (Homo sapiens, UniProt P08913); experiment: Radioligand binding affinity assay, Alpha2A
T3 sequence (P08913 1-465): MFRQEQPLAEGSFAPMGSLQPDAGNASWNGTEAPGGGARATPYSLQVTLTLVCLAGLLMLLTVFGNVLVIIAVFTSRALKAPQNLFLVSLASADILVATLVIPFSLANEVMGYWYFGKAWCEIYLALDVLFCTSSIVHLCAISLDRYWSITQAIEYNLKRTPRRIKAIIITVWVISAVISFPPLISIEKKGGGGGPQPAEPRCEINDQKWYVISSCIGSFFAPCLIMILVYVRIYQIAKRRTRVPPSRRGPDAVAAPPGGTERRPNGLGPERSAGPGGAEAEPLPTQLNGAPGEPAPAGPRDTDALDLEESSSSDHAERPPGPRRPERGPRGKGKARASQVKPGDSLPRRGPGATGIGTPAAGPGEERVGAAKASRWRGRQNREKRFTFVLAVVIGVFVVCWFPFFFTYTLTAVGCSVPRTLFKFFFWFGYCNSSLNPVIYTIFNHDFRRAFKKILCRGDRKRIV

[8] = biological target: T4, M2 (Homo sapiens, UniProt P08172); experiment: Radioligand binding affinity assay, M2
T4 sequence (P08172 1-466): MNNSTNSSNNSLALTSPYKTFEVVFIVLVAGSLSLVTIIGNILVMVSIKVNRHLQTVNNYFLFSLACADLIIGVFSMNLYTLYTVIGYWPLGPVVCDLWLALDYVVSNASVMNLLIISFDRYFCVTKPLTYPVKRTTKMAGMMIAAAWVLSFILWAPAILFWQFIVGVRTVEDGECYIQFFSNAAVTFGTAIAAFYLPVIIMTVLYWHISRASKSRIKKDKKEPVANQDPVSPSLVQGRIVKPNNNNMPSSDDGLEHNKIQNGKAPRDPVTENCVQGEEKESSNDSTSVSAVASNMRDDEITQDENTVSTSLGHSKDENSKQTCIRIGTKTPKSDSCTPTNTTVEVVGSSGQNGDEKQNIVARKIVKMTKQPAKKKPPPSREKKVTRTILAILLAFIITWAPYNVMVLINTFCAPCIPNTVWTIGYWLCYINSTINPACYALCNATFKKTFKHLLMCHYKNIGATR

[9] = biological target: H2 (Homo sapiens, UniProt P25021); experiment: Radioligand binding affinity assay, H2
[10] = biological target: DAT (Homo sapiens, UniProt Q01959); experiment: Radioligand binding affinity assay, DAT
[11] = biological target: M3 (Homo sapiens, UniProt P20309); experiment: Radioligand binding affinity assay, M3
[12] = Mouse pharmacokinetic study; format: in vivo; settings: mice, 50 mg/kg i.p.
[13] = system: D1R; experiment: Bias calculation; format: cell-based, human; settings: relative to dopamine; ΔΔlog(τ/KA), GS-cAMP vs β-arrestin2
[14] = system: 6-OHDA-lesioned mice; experiment: Motor activity study in 6-OHDA-lesioned mice; format: in vivo; settings: 5 mg/kg i.p., 90 min
[15] = system: D1R; settings: Tango assay, ref 73 (Wang et al.), cited from earlier work

Sequence of H2 (P25021 whole entry): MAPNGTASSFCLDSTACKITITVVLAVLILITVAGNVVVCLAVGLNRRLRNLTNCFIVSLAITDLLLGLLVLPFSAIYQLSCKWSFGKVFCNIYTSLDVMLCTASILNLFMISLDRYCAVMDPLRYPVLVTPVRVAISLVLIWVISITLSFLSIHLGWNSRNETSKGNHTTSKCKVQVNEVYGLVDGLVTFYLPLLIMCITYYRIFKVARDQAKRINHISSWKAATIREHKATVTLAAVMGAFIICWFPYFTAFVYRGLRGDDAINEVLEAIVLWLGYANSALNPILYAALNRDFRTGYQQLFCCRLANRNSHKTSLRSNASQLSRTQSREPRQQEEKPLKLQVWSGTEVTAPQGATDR
Sequence of 5-HT1D (P28221 whole entry, species assumed): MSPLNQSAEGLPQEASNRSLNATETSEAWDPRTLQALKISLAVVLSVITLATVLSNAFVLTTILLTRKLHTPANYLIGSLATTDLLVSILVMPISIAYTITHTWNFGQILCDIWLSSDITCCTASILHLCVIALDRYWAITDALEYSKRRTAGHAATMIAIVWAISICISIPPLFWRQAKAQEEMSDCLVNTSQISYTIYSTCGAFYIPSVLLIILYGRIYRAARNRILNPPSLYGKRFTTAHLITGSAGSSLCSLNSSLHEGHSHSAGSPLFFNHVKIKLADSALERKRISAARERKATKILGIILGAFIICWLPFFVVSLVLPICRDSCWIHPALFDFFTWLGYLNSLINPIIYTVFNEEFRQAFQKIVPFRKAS
Sequence of M3 (P20309 whole entry): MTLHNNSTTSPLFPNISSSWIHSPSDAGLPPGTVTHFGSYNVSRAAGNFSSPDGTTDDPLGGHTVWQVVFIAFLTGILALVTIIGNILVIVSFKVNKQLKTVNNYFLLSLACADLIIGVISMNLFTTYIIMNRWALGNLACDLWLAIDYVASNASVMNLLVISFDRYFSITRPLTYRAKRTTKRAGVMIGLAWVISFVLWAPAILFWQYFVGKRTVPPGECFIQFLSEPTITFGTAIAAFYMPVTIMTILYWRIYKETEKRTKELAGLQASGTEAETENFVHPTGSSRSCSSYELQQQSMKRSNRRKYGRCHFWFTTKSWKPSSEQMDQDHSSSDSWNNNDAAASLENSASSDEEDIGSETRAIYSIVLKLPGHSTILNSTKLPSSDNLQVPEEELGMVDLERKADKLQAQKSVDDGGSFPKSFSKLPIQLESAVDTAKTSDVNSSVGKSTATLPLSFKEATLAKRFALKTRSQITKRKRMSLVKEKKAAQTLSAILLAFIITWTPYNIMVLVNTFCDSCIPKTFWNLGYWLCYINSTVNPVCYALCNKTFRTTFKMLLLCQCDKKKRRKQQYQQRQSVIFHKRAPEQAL
Sequence of 5-HT1E (P28566 whole entry, species assumed): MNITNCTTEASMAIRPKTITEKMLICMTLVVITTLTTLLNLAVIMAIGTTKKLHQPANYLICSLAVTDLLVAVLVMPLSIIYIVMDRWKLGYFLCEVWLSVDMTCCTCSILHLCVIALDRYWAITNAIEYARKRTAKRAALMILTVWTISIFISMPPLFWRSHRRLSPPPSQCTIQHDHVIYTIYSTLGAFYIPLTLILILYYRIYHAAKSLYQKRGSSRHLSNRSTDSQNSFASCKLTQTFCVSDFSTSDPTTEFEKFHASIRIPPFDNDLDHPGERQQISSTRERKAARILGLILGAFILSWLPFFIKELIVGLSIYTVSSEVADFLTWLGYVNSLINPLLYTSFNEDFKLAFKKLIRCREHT
Sequence of 5-HT2B (P41595 whole entry, species assumed): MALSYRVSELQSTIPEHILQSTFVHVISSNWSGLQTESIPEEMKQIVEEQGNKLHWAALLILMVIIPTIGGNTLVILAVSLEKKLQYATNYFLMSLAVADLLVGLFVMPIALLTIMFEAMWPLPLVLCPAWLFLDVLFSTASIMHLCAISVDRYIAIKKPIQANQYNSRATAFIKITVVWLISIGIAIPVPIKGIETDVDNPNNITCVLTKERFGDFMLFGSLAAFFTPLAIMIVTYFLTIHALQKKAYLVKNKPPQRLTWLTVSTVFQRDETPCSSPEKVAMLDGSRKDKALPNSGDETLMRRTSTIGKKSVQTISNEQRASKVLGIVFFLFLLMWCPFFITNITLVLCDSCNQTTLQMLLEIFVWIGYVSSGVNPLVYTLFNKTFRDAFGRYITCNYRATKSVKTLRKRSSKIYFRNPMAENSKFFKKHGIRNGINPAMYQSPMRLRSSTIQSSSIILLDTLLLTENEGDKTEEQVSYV
Sequence of DAT (Q01959 whole entry, species assumed): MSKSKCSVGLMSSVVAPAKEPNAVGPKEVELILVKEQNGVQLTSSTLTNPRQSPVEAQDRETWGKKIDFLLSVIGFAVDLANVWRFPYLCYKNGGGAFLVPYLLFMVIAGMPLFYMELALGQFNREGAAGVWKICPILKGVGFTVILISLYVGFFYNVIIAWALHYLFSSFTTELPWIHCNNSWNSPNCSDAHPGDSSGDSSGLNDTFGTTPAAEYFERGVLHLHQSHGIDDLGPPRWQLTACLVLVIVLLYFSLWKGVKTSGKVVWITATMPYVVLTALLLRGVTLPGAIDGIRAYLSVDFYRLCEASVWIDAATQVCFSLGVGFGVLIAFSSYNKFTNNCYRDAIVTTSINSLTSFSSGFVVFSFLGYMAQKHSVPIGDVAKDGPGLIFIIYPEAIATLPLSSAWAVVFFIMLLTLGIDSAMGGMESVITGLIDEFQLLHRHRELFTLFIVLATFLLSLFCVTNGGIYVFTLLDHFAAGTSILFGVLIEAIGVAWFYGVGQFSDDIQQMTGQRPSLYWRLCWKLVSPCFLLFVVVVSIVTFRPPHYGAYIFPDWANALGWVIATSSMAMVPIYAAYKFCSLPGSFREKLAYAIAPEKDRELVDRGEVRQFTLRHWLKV
Sequence of 5-HT1B (P28222 whole entry, species assumed): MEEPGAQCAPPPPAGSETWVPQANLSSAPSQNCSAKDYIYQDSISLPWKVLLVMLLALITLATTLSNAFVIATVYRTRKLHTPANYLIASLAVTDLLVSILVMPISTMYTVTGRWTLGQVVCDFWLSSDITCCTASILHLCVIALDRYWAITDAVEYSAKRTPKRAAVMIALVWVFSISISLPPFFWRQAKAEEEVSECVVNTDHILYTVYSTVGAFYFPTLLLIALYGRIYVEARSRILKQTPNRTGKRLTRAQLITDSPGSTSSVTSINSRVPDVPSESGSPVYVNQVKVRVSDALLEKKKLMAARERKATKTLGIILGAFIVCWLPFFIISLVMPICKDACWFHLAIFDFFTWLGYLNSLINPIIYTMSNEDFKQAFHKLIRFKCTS

| Ki [1] | Ki [2] | Ki [3] | Ki [4] | Ki [5] | Ki [6] | Ki [7] | Ki [8] | Ki [9] | Ki [10] | Compound | Ki [11] | BBB penetrance [12] | tolerability / adverse clinical signs [12] | also measured |
| --- | --- | --- | --- | --- | --- | --- | --- | --- | --- | --- | --- | --- | --- | --- |
| > 10 µM | > 10 µM | > 10 µM | > 10 µM | > 10 µM | > 10 µM | > 10 µM | > 10 µM | > 10 µM | > 10 µM | Cc1cc(Oc2nccc3c2ccn3C)ccc1-c1c(C)c(=O)[nH]c(=O)n1C [Compound 37, 1,5-Dimethyl-6-(2-methyl-4-((1-methyl-1H-pyrrolo[3,2-c]pyridin-4-yl)oxy)phenyl)pyrimidine-2,4(1H,3H)-dione] | – | – | – | – |
| > 10 µM | > 10 µM | > 10 µM | > 10 µM | > 10 µM | > 10 µM | > 10 µM | > 10 µM | > 10 µM | > 10 µM | Cc1cc(Oc2nccc3ccsc23)ccc1-c1c(C)c(=O)[nH]c(=O)n1C [Compound 40, 1,5-Dimethyl-6-(2-methyl-4-(thieno[2,3-c]pyridin-7-yloxy)-phenyl)pyrimidine-2,4(1H,3H)-dione] | – | – | – | – |

More lines, now with the values behind:

| Compound | Ki [1] | Ki [2] | Ki [3] | Ki [4] | Ki [5] | Ki [6] | Ki [7] | Ki [8] | Ki [9] | Ki [10] | Ki [11] | BBB penetrance [12] | tolerability / adverse clinical signs [12] | also measured |
| --- | --- | --- | --- | --- | --- | --- | --- | --- | --- | --- | --- | --- | --- | --- |
| Cc1cc(Oc2nccc3occc23)ccc1-c1c(C)c(=O)[nH]c(=O)n1C1CC1 [Compound 18, 1-Cyclopropyl-6-(4-(furo[3,2-c]pyridin-4-yloxy)-2-methylphenyl)-5-methylpyrimidine-2,4(1H,3H)-dione] | > 10 µM | > 10 µM | > 10 µM | > 10 µM | > 10 µM | > 10 µM | > 10 µM | – | > 10 µM | > 10 µM | > 10 µM | – | – | – |
| COc1ccnc(Oc2ccc(-c3c(C)c(=O)[nH]c(=O)n3C)c(C)c2)c1C(F)(F)F [Compound 35, 6-(4-((4-Methoxy-3-(trifluoromethyl)pyridin-2-yl)oxy)-2-methylphenyl)-1,5-dimethylpyrimidine-2,4(1H,3H)-dione] | > 10 µM | > 10 µM | > 10 µM | > 10 µM | > 10 µM | > 10 µM | – | – | > 10 µM | > 10 µM | > 10 µM | good BBB penetrance | well-tolerated | time stable levels are maintained in the brain and plasma after administration [12]: at least 4 hours; peak concentration in the brain ([12]; sampled 0.5, 1.5, 4.0 h): ~100 µM; peak concentration in the plasma ([12]; sampled 0.5, 1.5, 4.0 h): ~100 µM |
| Cc1cc(Oc2nccc3occc23)ccc1-c1c(C)c(=O)[nH]c(=O)n1C [Compound 10, 6-(4-(Furo[3,2-c]pyridin-4-yloxy)-2-methylphenyl)-1,5-dimethylpyrimidine-2,4(1H,3H)-dione] | > 10 µM | > 10 µM | > 10 µM | > 10 µM | > 10 µM | > 10 µM | > 10 µM | > 10 µM | > 10 µM | > 10 µM | > 10 µM | good BBB penetrance | well-tolerated | bias factor for β-arrestin2 [13]: 1.8; forward locomotion at each time interval and total distance traveled vs vehicle [14]: statistically significant increases; number of contralateral rotations vs vehicle [14]: significant increases; β-arrestin2 recruitment EMAX [15]: 86%; EC50 ([15]; read-out: β-arrestin2 recruitment EC50): 0.035 µM |
| Cc1cc2c(Oc3ccc(-c4c(C)c(=O)[nH]c(=O)n4C)c(C)c3)nccc2o1 [Compound 36, 1,5-Dimethyl-6-(2-methyl-4-((2-methylfuro[3,2-c]pyridin-4-yl)-oxy)phenyl)pyrimidine-2,4(1H,3H)-dione] | > 10 µM | > 10 µM | > 10 µM | > 10 µM | > 10 µM | > 10 µM | > 10 µM | > 10 µM | > 10 µM | > 10 µM | > 10 µM | – | – | – |
